# According to patent US20260151518A1, “LEUKOCYTE-SPECIFIC CELL PENETRATING MOLECULES” (Amytrx Therapeutics, Inc., priority 2021, published 2026):
# Experiments:
# [1] = Pharmacokinetic study, AMTX-100 in plasma by LC-MS; format: in vivo; conditions: mice, sensitive to 2 ng/ml
# [2] = test system: animal models of lung, liver, sepsis, and metabolic syndrome induced inflammation; conditions: intraperitoneal injections; cited from earlier work
# Human whole blood (WB) = assay: Flow cytometry of human whole blood incubated with FITC-labelled peptide; format: cell-based
# Method: It was originally believed that the SSHR on AMTX-100 could enter cells without a receptor, energy or endocytosis. However, in studies performed by the present inventors, an AMTX-100-related peptide with a double-null knockout for Importin α/Importin β complex and Importin β obtained by amino acid substitution and also containing a FITC molecule (FITC-SMTX-100), was incubated with human blood and analyzed by flow cytometry.
# Because there appeared to be a concentration of radioactivity in organs with immune cells, a series of flow cytometry experiments was initiated with human blood. All cells were first stained with FITC-AMTX-100 and then incubated with immunotyping reagents that separated hematopoietic cells into broad categories of RBCs, granulocytes, monocytes, B- and T-lymphocytes, and NK cells. […] Again, a highly unexpected finding for a peptide which is “purported” to be a promiscuous, cell-penetrating, leader sequence.
# Human whole blood (WB) was obtained from multiple normal donors and incubated with [FITC]-AMTX-100 at μg/mL quantities in repeat experiments ex vivo.
# Panels of monoclonal antibodies labeled with fluorescent dyes were used to phenotypically identify [FITC]-AMTX-100 penetrated WB cells including classical monocytes, non-classical monocytes, neutrophils, basophils, eosinophils, and T- and B-lymphocytes and NK cells (FIG. 4A-B). […]
# [3] = Pharmacokinetics of [3H]-AMTX-100 after multiple routes of administration; format: in vivo, rat; conditions: rats, [3H]-AMTX-100
# Method: AMTX-100 was radiolabeled with 3H at lysine residues and injected into Sprague-Dawley rats in a single dose by seven different routes (intravenous, subcutaneous, topical [skin], intratracheal, intraduodenal, esophageal, and oral). The rats were evaluated at various time points, up to 120 hours, by: a) blood samples were taken for pharmacokinetics (PK) by cardiac puncture; b) rats were frozen and sectioned for QWBA and/or micro-auto-radiography and histology; and c) frozen sections were made and freeze dried and exposed to phosphor-storage imaging plates and tissue radioactivity in images was quantified as tissue: blood ratios.
# For all PK studies, the following definitions were used: WB=whole blood; Plasma=whole blood depleted of red blood cells; WBCD=whole blood depleted of white blood cells in which the whole blood is passed over a Pall Acrodisc filter (about 60% efficient); WBCs=the cells which bind to, and are washed off, the Pall Acrodisc filter.
structure (smiles),measurement,setting,value
CSCC[C@@H]1NC(=O)[C@H](CC(C)C)NC(=O)[C@H](CCCCN)NC(=O)[C@H](CCC(N)=O)CC(=O)[C@H](CCCNC(=N)N)NC(=O)[C@H](CCCCN)NC(=O)[C@H](CCCNC(=N)N)NC(=O)[C@H](CCC(N)=O)NC(=O)[C@H](C(C)C)NC(=O)[C@@H](NC(=O)[C@@H]2CCCN2C(=O)[C@H](C)NC(=O)[C@H](CC(C)C)NC(=O)[C@H](CC(C)C)NC(=O)[C@H](C)NC(=O)[C@H](CC(C)C)NC(=O)[C@H](CC(C)C)NC(=O)[C@@H](NC(=O)[C@H](C)NC(=O)[C@@H]2CCCN2C(=O)[C@H](CC(C)C)NC(=O)[C@H](CC(C)C)NC(=O)[C@H](C)NC(=O)[C@@H](NC(=O)[C@H](C)NC(=O)[C@H](C)N)C(C)C)C(C)C)CSSC[C@@H](C(=O)O)NC(=O)[C@@H]2CCCN2C1=O [AMTX-100],Detection of AMTX-100 in plasma depleted of RBCs and WBCs,[1],not possible to detect
same,Efficacy in animal models of inflammation,[2],have shown efficacy
same,Leukocyte populations targeted,Human whole blood (WB),"leukocytes (classical and non-classical monocytes, neutrophils, basophils and eosinophils)"
same,Partition of radiation in blood,[3],partitioned to the WBCs
